From BindingDB's records for doi:10.1016/j.bmcl.2010.02.003 (Boehringer Ingelheim (Canada), 2010)
pIC50: −log10 of the molar value.

Columns and labels:
Cytochrome P450 1A2 = target: T1, Cytochrome P450 1A2 (Homo sapiens, UniProt P05177); assay: Inhibition of CYP1A2
T1 sequence (P05177 whole entry): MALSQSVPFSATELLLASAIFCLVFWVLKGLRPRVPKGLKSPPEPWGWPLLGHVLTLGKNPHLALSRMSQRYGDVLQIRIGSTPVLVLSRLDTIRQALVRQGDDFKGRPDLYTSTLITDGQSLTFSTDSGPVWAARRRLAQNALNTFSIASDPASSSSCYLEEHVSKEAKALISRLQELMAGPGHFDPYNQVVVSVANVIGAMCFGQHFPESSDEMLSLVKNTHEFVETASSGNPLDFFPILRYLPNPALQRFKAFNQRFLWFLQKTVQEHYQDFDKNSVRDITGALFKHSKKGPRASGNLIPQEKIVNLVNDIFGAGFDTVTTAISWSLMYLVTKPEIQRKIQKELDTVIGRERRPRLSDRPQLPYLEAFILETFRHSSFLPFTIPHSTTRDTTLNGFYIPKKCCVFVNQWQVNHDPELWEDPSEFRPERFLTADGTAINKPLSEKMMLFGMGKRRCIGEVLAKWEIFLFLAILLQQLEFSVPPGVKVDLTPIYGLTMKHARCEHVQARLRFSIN

Cytochrome P450 2D6 = Cytochrome P450 2D6 (Homo sapiens, UniProt P10635); assay: Inhibition of CYP2D6
Sequence of Cytochrome P450 2D6 (P10635 whole entry): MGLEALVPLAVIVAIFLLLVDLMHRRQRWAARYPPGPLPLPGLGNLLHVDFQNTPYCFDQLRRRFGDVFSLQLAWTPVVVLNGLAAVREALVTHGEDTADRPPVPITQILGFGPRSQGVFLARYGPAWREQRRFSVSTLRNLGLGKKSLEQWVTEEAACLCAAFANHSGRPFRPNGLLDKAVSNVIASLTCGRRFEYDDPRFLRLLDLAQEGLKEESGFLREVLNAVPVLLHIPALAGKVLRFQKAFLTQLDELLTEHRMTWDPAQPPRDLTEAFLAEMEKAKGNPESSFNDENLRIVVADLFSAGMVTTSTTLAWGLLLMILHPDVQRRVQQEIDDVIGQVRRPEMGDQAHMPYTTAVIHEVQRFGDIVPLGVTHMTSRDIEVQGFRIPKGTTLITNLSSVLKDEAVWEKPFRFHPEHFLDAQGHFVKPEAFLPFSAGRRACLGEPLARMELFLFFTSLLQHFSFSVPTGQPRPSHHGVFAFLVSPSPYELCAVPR

Cytochrome P450 3A4 = Cytochrome P450 3A4 (Homo sapiens, UniProt P08684); assay: Inhibition of CYP3A4
Sequence of Cytochrome P450 3A4 (P08684 whole entry): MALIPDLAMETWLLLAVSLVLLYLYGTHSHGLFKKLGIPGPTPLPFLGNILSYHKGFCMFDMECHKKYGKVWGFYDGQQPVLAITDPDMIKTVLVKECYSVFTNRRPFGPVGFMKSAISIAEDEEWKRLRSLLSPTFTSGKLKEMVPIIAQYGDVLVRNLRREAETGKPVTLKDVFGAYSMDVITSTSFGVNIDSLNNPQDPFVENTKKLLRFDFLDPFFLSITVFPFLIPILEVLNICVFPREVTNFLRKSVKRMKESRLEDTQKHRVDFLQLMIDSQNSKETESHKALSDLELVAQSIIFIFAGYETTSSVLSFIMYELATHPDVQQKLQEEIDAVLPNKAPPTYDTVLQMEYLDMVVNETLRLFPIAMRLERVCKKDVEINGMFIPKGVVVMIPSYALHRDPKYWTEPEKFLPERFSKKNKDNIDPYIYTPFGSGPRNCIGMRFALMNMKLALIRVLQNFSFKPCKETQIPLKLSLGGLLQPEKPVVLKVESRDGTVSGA

SMILES	pIC50 (Cytochrome P450 1A2)	pIC50 (Cytochrome P450 2D6)	pIC50 (Cytochrome P450 3A4)
O=C(N[C@@H](Cc1c[nH]c2ccc(O)cc12)c1cscn1)c1ccc2c(c1)nc(-c1ccoc1)n2C1CCCCC1 [1-cyclohexyl-2-(furan-3-yl)-N-((S)-2-(5-hydroxy-1H-indol-3-yl)-1-(thiazol-4-yl)ethyl)-1H-benzo[d]imidazole-5-carboxamide]	< 4.52	–	–
O=C(O)/C=C/c1ccc(NC(=O)C2(NC(=O)c3ccc4c(c3)nc(-c3ccoc3)n4C3CCCCC3)CCCC2)cc1 [3-(4-(1-(1-cyclohexyl-2-(furan-3-yl)-1H-benzo[d]imidazole-5-carboxamido)cyclopentanecarboxamido)phenyl)acrylic acid]	< 4.52	< 4.52	< 4.52
O=C(O)/C=C/c1ccc(NC(=O)C2(NC(=O)c3ccc4c(c3)nc(-c3ccccn3)n4C3CCCCC3)CCCC2)cc1 [3-(4-(1-(1-cyclohexyl-2-(pyridin-2-yl)-1H-benzo[d]imidazole-5-carboxamido)cyclopentanecarboxamido)phenyl)acrylic acid]	< 4.52	< 4.52	< 4.52
